Experimental data as given in patent US20250108036A1, “COMPOSITIONS FOR REMOVING SENESCENT CELLS AND USES THEREOF” (LIFECEUTIX CO., LTD., priority 2021, published 2025).

Tests used:
Type in all cases: cell-based, human
[1] = test system: foreskin cells in which senescence was induced by doxorubicin; experiment: CellTiter-Glo cell viability of doxorubicin-induced senescent foreskin cells (Examples 1-2, 10, 11, 13; Tables 4, 63, 65); conditions: Homo sapiens, 72 h, doxorubicin-induced senescent foreskin cells, CellTiter-Glo, 0 μM = 100, read-out: Survival (%); for viability at 1.1 µM: 1.1 μM test compound; for viability at […]: […] test compound; for viability at 10 µM: 10 μM test compound; for viability at 30 µM: 30 μM test compound; for viability at 90 µM: 90 μM test compound
Description: After 3 days, cell viability was measured using CellTiter-Glo Luminescent Cell Viability Assay (Promega) or light microscopy.

[2] = test system: HMGN1; experiment: HMGN1 ELISA in culture medium of foreskin cells (Examples 10, 11; Tables 62, 63, 64); conditions: Homo sapiens, doxorubicin-treated foreskin cells, DMSO = 100; for activity at 30 µM: 30 μM test compound, read-out: HMGN1; for activity at 90 µM: 90 μM test compound
[3] = test system: HMGN1; experiment: HMGN1 ELISA in culture medium of A549 cancer cells (Example 12, Table 66); conditions: Homo sapiens, A549, doxorubicin-induced senescent A549 cells, ELISA, DMSO = 100, read-out: HMGN1 (amount of HMGN1 secreted in the cell culture); for activity at 30 µM: test compound 30 μM; for activity at 90 µM: test compound 90 μM
[4] = test system: A549; experiment: CellTiter-Glo cell viability of senescent A549 cancer cells (Example 12, Table 67); conditions: Homo sapiens, A549, doxorubicin-induced senescent A549 cancer cells, CellTiter-Glo, read-out: Survival (%); for viability at 1.1 µM: 1.1 μM test compound; for viability at 10 µM: 10 μM test compound; for viability at 30 µM: 30 μM test compound; for viability at 90 µM: 90 μM test compound

Compound	viability at 1.1 µM [1]	viability at […] [1]	activity at 30 µM [2]	activity at 30 µM [3]	viability at 1.1 µM [4]	viability at 10 µM [4]	viability at 10 µM [1]	viability at 30 µM [1]	viability at 90 µM [1]	activity at 90 µM [2]	activity at 90 µM [3]	viability at 30 µM [4]	viability at 90 µM [4]
C[C@@H]1C(=O)C(C#N)=C[C@]2(c3ccccc3)c3c(c(-c4cccnc4)nn3C)CC[C@@H]12 [LX-2407, (5aS,6S,9aR)-1,6-dimethyl-7-oxo-9a-phenyl-3-(pyridin-3-yl)-4,5,5a,6,7,9a-hexahydro-1H-benzo[g]indazole-8-carbonitrile]	15.4%	5.9%	308%	316%	89.6%	41.8%							
C[C@@H]1C(=O)C(C#N)=C[C@]2(C)c3nc(CCO)n(-c4ccccc4)c3CC[C@@H]12 [LX-2409]	37.1%	12.8%	239%	281%	88.5%	26.4%							
CC(O)[C@]1(C)C(=O)C(C#N)=C[C@]2(C)C3=CC(=O)[C@]45OC(=O)[C@@]6(CCC(C)(C)C[C@H]64)CC[C@@]5(C)[C@]3(C)CC[C@@H]12 (stereo partly shown) [LX-2501]	11.1%		309%	333%	14.4%								
CCC[C@H]1C(=O)C(C#N)=C[C@@]2(C)c3nc(-c4ccnc5ccccc45)nc(-c4ccccc4F)c3CC[C@H]12 [LX-2502]	49.6%	13.4%	258%	297%	97.2%	5.9%							
CCC[C@H]1C(=O)C(C#N)C[C@@]2(C)c3nc(-c4cccc5ncccc45)nc(-c4ccccc4F)c3CC[C@H]12 (stereo partly shown) [LX-2503]	82.4%	25.8%	297%	285%	105%	31.2%							
C[C@H]1C(=O)C(C#N)=C[C@@]2(C)c3c(c(-c4ccccc4)nn3-c3ccc(-c4cccc(CO)c4)cc3)CC[C@H]12 [LX-2505]	78.6%	36.9%	248%	308%	100%	18.6%							
Cc1cc(-c2ccc(-n3nc(-c4ccccc4F)c4c3[C@]3(C)C=C(C#N)C(=O)[C@H](C)[C@H]3CC4)cc2)cnn1 [LX-2506]	91%	11.8%	279%	267%	98.3%	26.4%							
C[C@@H]1C(=O)C(C#N)=C[C@]2(C)C3=CC(=O)[C@@H]4[C@@H]5CC(C)(C)CC[C@]5(c5nnc(CF)o5)CC[C@@]4(C)[C@]3(C)CC[C@@H]12 [LX-2507]	46.6%	38.6%	267%	248%	97.5%	35.7%							
CC1(C)CC[C@]2(c3nc(CO)no3)CC[C@]3(C)[C@H](C(=O)C=C4[C@@]5(C)C=C(C#N)C(=O)C(C)(C)[C@@H]5CC[C@]43C)[C@@H]2C1 [LX-2508]	75.6%	28.2%	313%	283%	93.5%	43.9%							
C=CC(=O)NC[C@]12CCC(C)(C)C[C@H]1[C@H]1C(=O)C=C3[C@@]4(C)C=C(C#N)C(=O)C(C)(C)[C@@H]4CC[C@@]3(C)[C@]1(C)CC2 [LX-2509]	81.1%	13.5%	301%	305%	106%	21.8%							
CCC(=O)NC[C@]12CCC(C)(C)C[C@H]1[C@H]1C(=O)C=C3[C@@]4(C)C=C(C#N)C(=O)C(C)(C)[C@@H]4CC[C@@]3(C)[C@]1(C)CC2 [LX-2510]	62.9%	11.8%	288%	317%	95.7%	2.9%							
C[C@@H]1[C@H]2[C@H]3C(=O)C=C4[C@@]5(C)C=C(C#N)C(=O)C(C)(C)[C@@H]5CC[C@@]4(C)[C@]3(C)CC[C@@]2(c2nc(CCO)no2)CC[C@H]1C [LX-2511]	43.5%	8.4%	306%	296%	97.2%	2.1%							
C[C@@H]1[C@H]2[C@H]3C(=O)C=C4[C@@]5(C)C=C(C#N)C(=O)C(C)(C)[C@@H]5CC[C@@]4(C)[C@]3(C)CC[C@@]2(CO)CC[C@H]1C [LX-2512]	38.2%	3.2%	276%	274%	88.5%	11.7%							
COC(=O)[C@@]1(C)CC[C@]2(C)CC[C@]3(C)[C@H](C(=O)C=C4[C@@]5(C)C=C(C#N)C(=O)C(C)(C)C5CC[C@]43C)[C@@H]2C1 (stereo partly shown) [LX-2513, Soloxolone methyl]	49.6%	2.6%	325%	311%	105%	6.9%							
CC1(C)C(=O)C(C#N)=C[C@]2(C)C3=CC(=O)[C@@H]4[C@@H]5C[C@@](C)(C(=O)NCCc6c[nH]c7ccccc67)CC[C@]5(C)CC[C@@]4(C)[C@]3(C)CCC12 (stereo partly shown) [LX-2517, Soloxolone tryptamide]	0.6%		298%	318%	8.4%								
C=C(CC)C(=O)c1ccc(OCC(=O)O)c(Cl)c1Cl [LX-2603, Ethacrynic acid, reference compound]	100%	103%			98.7%	89.1%	95.8%	52.6%	37.8%	218%	245%	41.5%	1.8%
CCCCC/C=C\C/C=C\C/C=C\C/C=C\CCCC(=O)O [LX-2701, Arachidonic acid]	103%	97.3%			102%	97.1%	76.8%	48.3%	29.4%	194%	179%	93.8%	42.9%
CC/C=C\C/C=C\C/C=C\C/C=C\C/C=C\C/C=C\CCC(=O)O [LX-2702, Docosahexaenoic acid]	104%	99.1%			96.7%	94.4%	87.4%	49.6%	22.9%	206%	237%	55.1%	9.5%
CCCCC/C=C\C/C=C\CCCCCCCC(=O)O [LX-2703, Linoleic acid]	100%	100%			101%	99.6%	89.5%	55.2%	35.2%	218%	202%	71.5%	28.3%
